Data: PMC8395335, “Serotonergic–Muscarinic Interaction within the Prefrontal Cortex as a Novel Target to Reverse Schizophrenia-Related Cognitive Symptoms” (International Journal of Molecular Sciences, 2021)

System: MK-801-treated mice
Experiment: Y-maze test (spontaneous alternations), MK-801-induced deficits
Assay type: in vivo
Settings: for Reversal of MK-801-induced disruptions in Y-maze by combined administration: 7 days; for Effect of combined administration on spontaneous alternations in the Y-maze test: MK-801-treated
Description: Drugs were administered on two different schedules: (1) acute administration of compounds 45 min (WAY100635—5-HT1A antagonist) or 30 min (VU0357017, VU152100, VU0238429, and F15599) before MK-801 (also administered once 30 min before the test in Y-maze or T1 in NOR test); and (2) prolonged administration (once per day for 7 consecutive days) of the compounds and MK-801 with the last administration 24 h before the test (NOR test) or at the day of the test (Y-maze). […] Schedules of administration are presented graphically in Figure 2. The subeffective doses of the compounds for acute administration in the NOR test were chosen based on our previous research (see: [22, 23]) while dose-dependent studies of the activity of the compounds in reversing disruptions in the Y-maze or after prolonged administration along with MK-801 were performed within this study. Different vehicles were used throughout the study: (1) 0.9% NaCl and (2) 10% Tween 80. Vehicles were administered to all animals (e.g., control mice and MK-801-treated mice) on the same schedule as drugs were administered to the appropriate drug-treated groups of mice. Neither solvent exerted effects on animal behavior.
Male Albino Swiss mice (Charles River, Sulzfeld, Germany) weighing 20–25 g at the beginning of the experiments were used in the studies. The animals were housed in a room with a 12:12 h light-dark cycle at a temperature of 22 ± 1 °C with food and water available ad libitum. The experimental groups consisted of 8–10 animals. All drugs were administered intraperitoneally (i.p.) at a volume of 10 mL/kg. The behavioral experiments were performed by an observer who was blinded to the treatment. The procedures were conducted in accordance with the European Communities Council Directive of 22 September 2010 (2010/63/EU) and Polish legislation acts concerning animal experimentation and were approved by the II Local Ethics Committee by the Maj Institute of Pharmacology, Polish Academy of Sciences in Krakow (15/2020, 240/2020).
In acute experiments, the tested compounds (alone or in combination) were administered 30 min before MK-801 (0.3 mg/kg), which was administered 30 min before the test or training trial (T1) in the NOR test. In chronic experiments, the tested compounds (alone or in combination) and MK-801 were administered for seven days. Behavioral tests were performed on the eighth day.
The Y-maze was performed using the methods described by Miedel et al. and Kraeuter et al. with minor modifications. A black, wooden Y-shaped apparatus with equal length arms (labeled A, B, or C) spaced 120 apart was used in the behavioral experiment. Visual clues were placed inside the maze and mounted to the back wall of each arm. The experiment was performed in a well-lit room. The mice were placed in the same starting arm and were allowed to freely explore the maze for 8 min. After each trial, the maze was wiped clean. The sequence and the number of arm entries were recorded to calculate the percentage of spontaneous alternations using the following formula: [(Number of alternations)/(Total arm entries − 2)] × 100. An arm entry was scored if the animal entered the arm with all paws. Consecutive entries into three distinct arms were scored as an alternation (e.g., ACB, but not ACA) in which sequences could overlap (e.g., ACBACABAC represents […] alternations).

[1] = F15599 0.025 mg/kg with VU0238429 1 mg/kg (subeffective doses)
[2] = F15599 0.025 mg/kg with VU0357017 1 mg/kg (subeffective doses)
[3] = acute, F15599 0.1 mg/kg with VU0238429 5 mg/kg
[4] = acute, F15599 0.1 mg/kg with VU0357017 10 mg/kg

Compound	Reversal of MK-801-induced reduction in spontaneous alternations in the Y-maze (7 days with MK-801, 0.025 mg/kg)	Reversal of MK-801-induced reduction in spontaneous alternations in the Y-maze (7 days with MK-801, 0.05 mg/kg)	Reversal of MK-801-induced reduction in spontaneous alternations in the Y-maze (7 days with MK-801, 0.1 mg/kg)	Reversal of MK-801-induced disruptions in Y-maze by combined administration (F15599 0.025 mg/kg with VU0152100 0.05 mg/kg (subeffective doses))	Reversal of MK-801-induced disruptions in Y-maze by combined administration [1]	Reversal of MK-801-induced disruptions in Y-maze by combined administration [2]	Reversal of MK-801-induced reduction in spontaneous alternations in the Y-maze (acute, 0.05-0.5 mg/kg i.p.)	Effect of combined administration on spontaneous alternations in the Y-maze test (acute, F15599 0.1 mg/kg with VU0152100 1 mg/kg)	Effect of combined administration on spontaneous alternations in the Y-maze test [3]	Effect of combined administration on spontaneous alternations in the Y-maze test [4]	Reversal of MK-801-induced reduction in spontaneous alternations in the Y-maze (7 days with MK-801, 0.5 mg/kg)	Reversal of MK-801-induced reduction in spontaneous alternations in the Y-maze (7 days with MK-801, 1 mg/kg)	Reversal of MK-801-induced reduction in spontaneous alternations in the Y-maze (7 days with MK-801, 5 mg/kg)	Reversal of MK-801-induced reduction in spontaneous alternations in the Y-maze (acute, 5 mg/kg i.p.)	Reversal of MK-801-induced reduction in spontaneous alternations in the Y-maze (acute, 10 mg/kg i.p.)	Reversal of MK-801-induced reduction in spontaneous alternations in the Y-maze (acute, 20 mg/kg i.p.)	Reversal of MK-801-induced reduction in spontaneous alternations in the Y-maze (acute, 1-10 mg/kg i.p.)
Cc1cnc(CNCC2(F)CCN(C(=O)c3ccc(F)c(Cl)c3)CC2)nc1 [F15599]	ineffective	ineffective	reversed	did not reverse	did not reverse	did not reverse	no efficacy	no effect	no effect	no effect							
COc1ccc(CN2C(=O)C(=O)c3cc(OC(F)(F)F)ccc32)cc1 [VU0238429]					did not reverse				no effect		not	not	active	ineffective	reversed	reversed	
CCOC(=O)N1CCC(NCCNC(=O)c2ccccc2C)CC1 [VU0357017]						did not reverse				no effect	not	not	activity of VU0357017 was observed				No efficacy
